Common to all, as to type: in vivo
Experiment [1] relates to stereotype behaviour induced by apomorphine (dopamine receptor blockade in the central nervous system). In words: Inhibition of stereotype behaviour induced by apomorphine. The conditions noted are these: rat; for Inhibition of Stereotype Behaviour, active dose: s.c., apomorphine induced, active doses (mg/kg). The procedure: (§1) 1. Compounds prepared in the Examples were tested for the following pharmacological activities in the rat:
(c) Inhibition of stereotype behaviour induced by apomorphine
This is indicative of dopamine receptor blockade in the central nervous system.

The test system of experiment [2] is emetic response to apomorphine. In words: Anti-emetic activity in the dog (abolition of emetic response to apomorphine). The conditions noted are these: for ED50: Canis lupus familiaris, sc, apomorphine emesis. How it is done:
2. Anti- emetic activity in the dog
(a) Compounds were tested in the dog for their ability to abolish the emetic response to apomorphine.

The test system of experiment [3] is intragastric pressure. The experiment in a line: Increase in intragastric pressure in the rat. The conditions noted are these: s.c., active doses (mg/kg). The procedure: as §1
(a) Increase in intragastric pressure
Intragastric pressure changes were recorded from previously starved conscious but restrained rats using a saline filled catheter inserted into the lumen of the stomach via a permanent gastric fistula. The catheter was connected to a physiological pressure transducer and pressure changes recorded on a hot wire pen recorder. In each animal a pre dose period of 40 minutes was allowed to obtain a measure of spontaneous activity. An index of activity was obtained by measuring the average height of pressure waves during 10 minute periods. Values for 4 such periods were obtained during assessment of spontaneous activity and for the 40 minute period after the subcutaneous administration of the Compounds. Student "t" test was applied to the difference in average values obtained for spontaneous and post Compound activity.

Experiment [4] has as its system intragastric pressure. The experiment in a line: Increase in intragastric pressure in the rat. The conditions noted are these: p.o., active doses (mg/kg).
Experiment [5] has as its system apomorphine induced delay in gastric emptying. In words: Increase in gastric emptying - reversal of apomorphine induced delay in gastric emptying of a test meal. The conditions noted are these: rat, s.c., apomorphine HCl 5 mg/kg s.c., active doses (mg/kg); for Increase in Gastric Emptying, active dose (slightly active): slightly active at this dose. How it is done: as §1
(b) Increase in gastric emptying-reversal of apomorphine induced delay in gastric emptying of a test meal.
Rats equipped with chronic gastric fistual were used and it was through this that 5 ml of a test meal (5 ml phosphate buffer at pH 9) was administered and recovered. The % recovery of the standard meal after remaining in the stomach for 10 minutes was taken as an index of gastric emptying. Delay in gastric emptying was induced by the administration of Apomorphine HCl (5 mg/kg subcutaneously) and was given 15 minutes prior to the subcutaneous administration of the Compound. The % recoveries of the test meal was determined at 15-25 and 45-55 minutes post dosing with the Compound and compared with vehicle only dosed animals set up simultaneously. Six animals were used for each group.

Experiment [6] relates to catapresan induced fighting behaviour. In words: Catapresan Test (catapresan induced fighting behaviour). The conditions noted are these: Mus musculus, po; mice, orally; catapresan 20-25 mg/kg intravenously; read-out: ED50, inhibition of catapresan induced fighting behaviour. How it is done: Catapresan (20-25 mg/kg intravenously) was used to induce fighting behaviour in mice. The fighting was assessed as the biting of a dead mouse placed in the cage and was given a score of 1 or 2 depending on intensity. Compound effect was measured as percentage inhibition of fighting compared to that with control animals and the dose reducing fighting by 50% was determined graphically.

The test system of experiment [7] is amphetamine induced stereotypy. The experiment in a line: Antagonism of Amphetamine Stereotypy. The conditions noted are these: rats, 10 mg/kg subcutaneously; d-amphetamine 10 mg/kg s.c. How it is done:
Antagonism of Amphetamine Stereotypy
Based on method of Jansen, Niemegeers and Schellekens (1966), Arzneimittel Forsch., 15, pp. 104-117. Rats were given compound 15 minutes prior to subcutaneous injection of d-amphetamine (10 mg/kg). 30 minutes and 1 hour after the amphetamine, the degree of stereotyped behaviour was scored according to the method of Costal, Naylor and Olley (1972). Europ. J. Pharmacol., 18, pp. 83-94. The percentage inhibition of stereotypy at the respective time interval was calculated.

As for `COc1cc(N)c(Cl)cc1C(=O)NN1CCN(Cc2ccccc2)CC1` [Example 1, 4-Amino-5-chloro-2-methoxy-N-[4-benzyl-1-piperazinyl]benzamide], the “Inhibition of Stereotype Behaviour, active dose” value (shortened to “Inhibition … active dose”) in experiment [1] was found to be 0.625 mg. Moreover, the 50% effect level in experiment [2] (ED50) was put at a dose of 0.0125 mg/kg.

As to `COc1cc(N)c(Cl)cc1C(=O)NN1CCN(C)CC1` [Example 2, 4-Amino-5-chloro-2-methoxy-N-[4-methyl-1-piperazinyl]benzamide], the “Increase in Intra-gastric Pressure, active dose” value in the experiment with intragastric pressure [3] came out at 1 mg/kg; in the experiment with intragastric pressure [4] it was 20 mg/kg. For the same compound, the “Inhibition of Stereotype Behaviour” value in experiment [1] (at 100 mg s.c.) was “Inactive”. For the same compound, the 50% effect level in experiment [2] (ED50) was put at a dose of 8 mg/kg.

As for `COc1cc(N)c(Cl)cc1C(=O)NN1CCN(C)CC1` [Example 4, 4-amino-5-chloro-2-methoxy-N-[4-methyl-1-piperazinyl]benzamide], the “Increase in Intra-gastric Pressure, active dose” value in the experiment on intragastric pressure [4] worked out at 10 mg/kg.

Take `CCN1CCN(NC(=O)c2cc(Cl)c(N)cc2OC)CC1` [Example 5, 4-Amino-5-chloro-2-methoxy-N-[4-ethyl-1-piperazinyl]benzamide]: the “Increase in Intra-gastric Pressure, active dose” value in the experiment with intragastric pressure [3] stood at 50 mg/kg. Further, in experiment [1] (at 50 mg s.c.), the “Inhibition of Stereotype Behaviour” value was “Inactive”.

Turning to `CCCCN1CCN(NC(=O)c2cc(Cl)c(N)cc2OC)CC1` [Example 6, 4-Amino-5-chloro-2-methoxy-N-[4-n-butyl-1-piperazinyl]benzamide], in the experiment with intragastric pressure [3], the “Increase in Intra-gastric Pressure, active dose” value worked out at 5 mg/kg. Further, the “Inhibition of Stereotype Behaviour” value in experiment [1] (at 25 mg s.c.) is “Inactive”. Moreover, in experiment [2], the ED50 came to 1 mg/kg.

For `COc1cc(N)c(Cl)cc1C(=O)NN1CCN(Cc2ccc(Cl)cc2)CC1` [Example 7, 4-Amino-5-chloro-2-methoxy-N-{[4-(4-chlorobenzyl)]1-piperazinyl}benzamide], in experiment [1], the “Inhibition … active dose” value is 50 mg.

`COc1ccc(CN2CCN(NC(=O)c3cc(Cl)c(N)cc3OC)CC2)cc1` [Example 8, 4-Amino-5-chloro-2-methoxy-N-[4-(4-methoxybenzyl)-1-piperazinyl]benzamide]: the “Inhibition … active dose” value in experiment [1] came out at 3 mg.

On to `COc1cc(N)c(Cl)cc1C(=O)NN1CCCN(C)CC1` [Example 9, 4-Amino-5-chloro-2-methoxy-N-[4-methyl-1-(1,4-diazacycloheptyl)]benzamide], for which, in the experiment on intragastric pressure [3], the “Increase in Intra-gastric Pressure, active dose” value was determined as 10 mg/kg. In addition, in experiment [1] (at 25 mg s.c.), the “Inhibition of Stereotype Behaviour” value was “Inactive”. Moreover, the Anti-emetic activity entry in experiment [2] (at 2 mg/kg s.c., inhibition of no. of vomits only) is given as “slight activity”.

Take `COc1cc(N)c(Cl)cc1C(=O)NN1CCN(Cc2cccs2)CC1` [Example 11, 4-Amino-5-chloro-2-methoxy-N-[4-(2-thenyl)-1-piperazinyl]-benzamide]: the “Increase in Intra-gastric Pressure, active dose (slightly active)” value with intragastric pressure [3] (slightly active at this dose) worked out at 50 mg. Also, the “Inhibition of Stereotype Behaviour” value in experiment [1] (at 50 mg s.c.) is “Inactive”.

Regarding `COc1cc(N)c(Cl)cc1C(=O)NN1CCN(Cc2ccsc2)CC1` [Example 12, 4-Amino-5-chloro-2-methoxy-N-[4-(3-thenyl)-1-piperazinyl]-benzamide], the “Inhibition … active dose” value in experiment [1] was determined as 50 mg.

`CCCCCN1CCN(NC(=O)c2cc(Cl)c(N)cc2OC)CC1` [Example 13, 4-amino-5-chloro-2-methoxy-N-[4-(1-pentyl)-1-piperazinyl]-benzamide]: the “Inhibition … active dose” value in experiment [1] came to 50 mg. Also, the ED50 in experiment [2] is 0.36 mg/kg.

Take `COc1cc(N)c(Cl)cc1C(=O)NN1CCN(Cc2ccc(F)cc2)CC1` [Example 14, 4-amino-5-chloro-2-methoxy-N-[4-(4-fluorobenzyl)-1-piperazinyl]-benzamide]: in experiment [1], the “Inhibition … active dose” value turned out to be 50 mg.

`CCCN1CCN(NC(=O)c2cc(Cl)c(N)cc2OC)CC1` [Example 15, 4-amino-5-chloro-2-methoxy-N-[4-(1-propyl)-1-piperazinyl]-benzamide]: the “Increase in Intra-gastric Pressure, active dose” value in the experiment on intragastric pressure [3] was 10 mg/kg. Further, the “Inhibition of Stereotype Behaviour” value in experiment [1] (at 50 mg s.c.) is given as “Inactive”. The “Increase in Gastric Emptying, active dose (slightly active)” value in experiment [5] stood at 50 mg.

For `COc1cc(N)c(Cl)cc1C(=O)NN1CCN(C(C)C)CC1` [Example 16, 4-amino-5-chloro-2-methoxy-N-[4-(2-propyl)-1-piperazinyl]-benzamide], the “Increase in Intra-gastric Pressure, active dose” value with intragastric pressure [3] was 5 mg/kg. Besides, in experiment [1] (at 50 mg s.c.), the “Inhibition of Stereotype Behaviour” value is “Inactive”.

Regarding `COc1cc(N)c(Cl)cc1C(=O)NN1CC[N+](C)(C)CC1.[Br-]` [Example 17, 4-Amino-5-chloro-2-methoxy-N-[4-methyl-1-piperazinyl]-benzamide methobromide], the “Increase in Intra-gastric Pressure, active dose” value with intragastric pressure [3] stood at 0.5 mg/kg. The “Inhibition of Stereotype Behaviour” value in experiment [1] (at 50 mg s.c.) was “Inactive”.

Turning to `COc1cc(N)c(Cl)cc1C(=O)NN1CC[N+](C)(Cc2ccccc2)CC1.[Br-]` [Example 18, 4-Amino-5-chloro-2-methoxy-N-[4-methyl-1-piperazinyl]-benzamide benzobromide], the “Increase in Intra-gastric Pressure, active dose” value in the experiment with intragastric pressure [3] was 25 mg/kg. In experiment [1] (at 50 mg s.c.), the “Inhibition of Stereotype Behaviour” value is “Inactive”. In addition, in experiment [5], the “Increase in Gastric Emptying, active dose” value amounted to 25 mg.

In the case of `CCCC[N+]1(C)CCN(NC(=O)c2cc(Cl)c(N)cc2OC)CC1.[Br-]` [Example 19, 4-Amino-5-chloro-2-methoxy-N-[4-n-butyl-1-piperazinyl]-benzamide methobromide], the “Increase in Intra-gastric Pressure, active dose” value with intragastric pressure [3] is 1 mg/kg. In addition, the “Inhibition of Stereotype Behaviour” value in experiment [1] (at 50 mg s.c.) is on record as “Inactive”. Further, the “Increase in Gastric Emptying, active dose (slightly active)” value in experiment [5] turned out to be 50 mg.

Take `COc1cc(N)c(Cl)cc1C(=O)NN1CCN(CCC(C)C)CC1` [Example 20, 4-Amino-5-chloro-2-methoxy-N-[4-(3-methylbutyl)-1-piperazinyl]-benzamide]: in experiment [2], it took a dose of 0.35 mg/kg to reach the 50% effect level (ED50).

On to `COc1cc(N)c(Br)cc1C(=O)NN1CCN(C)CC1` [Example 21, 4-Amino-5-bromo-2-methoxy-N-[4-methyl-1-piperazinyl]-benzamide hemihydrate], for which the “Increase in Intra-gastric Pressure, active dose” value with intragastric pressure [3] was 5 mg/kg. The “Inhibition of Stereotype Behaviour” value in experiment [1] (at 50 mg s.c.) is listed as “Inactive”.

On to `CCCCN1CCCN(NC(=O)c2cc(Cl)c(N)cc2OC)CC1` [Example 22, 4-Amino-5-chloro-2-methoxy-N-[4-n-butyl-1-(1-4-diazocycloheptyl)]benzamide], for which the “Inhibition of apomorphine induced emesis” value in experiment [2] (at 5 mg/kg subcutaneously) is given as “completely inhibited”.

`COc1cc(N)c(Cl)cc1C(=O)NN1CCN(Cc2ccc(N(C)C)cc2)CC1` [Example 23, 4-Amino-5-chloro-2-methoxy-N-[4-(4-dimethylaminobenzyl)-1-piperazinyl]benzamide]: the ED50 in experiment [6] was 60 mg/kg. For the same compound, the “Inhibition of amphetamine induced stereotypy” value in experiment [7] worked out at 25%.
